This note sets out measurements from PubChem BioAssay (NCI).

Test systems include M19-MEL melanoma; SNB-78 CNS; KM20L2 colon; RXF-631 renal; HOP-18 NSCLC; DLD-1 colon; XF 498 CNS; DMS 273 small cell lung; MDA-N.
Holding throughout (experiment): NCI tumour cell line growth inhibition, 48 h

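Each compound was tested at five concentrations against cells in 96-well plates for 48 hours. TGI: total growth inhibition.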

As for `CCOC(=O)NC(=O)c1cn(C2OC(COC(=O)CCCCCCCCC(=O)OCC3OC(n4cc(C(=O)NC(=O)OCC)c(=O)[nH]c4=O)C4OC(C)(C)OC34)C3OC(C)(C)OC32)c(=O)[nH]c1=O` (stereo not given), the TGI in the experiment on M19-MEL melanoma was 86.2 µM; in the experiment with SNB-78 CNS, more than 100 µM; with KM20L2 colon it was more than 100 µM; in the experiment with RXF-631 renal, more than 100 µM; in the experiment on HOP-18 NSCLC, more than 100 µM; in the experiment on DLD-1 colon it was more than 100 µM. Besides, the TGI in the experiment on XF 498 CNS and with DMS 273 small cell lung was more than 100 µM throughout.
Consider `Fc1ccc2c(c1)cc1ccc3cccc4ccc2c1c34`, for which the TGI with M19-MEL melanoma, in the experiment on SNB-78 CNS, in the experiment on KM20L2 colon, in the experiment with RXF-631 renal, in the experiment on HOP-18 NSCLC and with DLD-1 colon was more than 100 µM in each case. In addition, the TGI with XF 498 CNS and in the experiment with DMS 273 small cell lung was more than 100 µM throughout.
On to `CCCCCCC/C=C1\CCC(CN(C)C)C1=O` (stereo not given), for which the TGI is 35.8 µM in the experiment with SNB-78 CNS; 34.6 µM in the experiment with KM20L2 colon; more than 71.4 µM with RXF-631 renal; 26.8 µM in the experiment with MDA-N; 31.4 µM in the experiment with HOP-18 NSCLC; 20.9 µM in the experiment with DLD-1 colon. The same molecule showed a TGI with XF 498 CNS of 35.4 µM.
For the molecule `CC(C)(C)C1CCC(=O)C(C(O)CC2CC(=O)N(c3ccccc3)C(=O)C2)C1` (stereo not given), the TGI with M19-MEL melanoma, in the experiment on SNB-78 CNS, in the experiment with KM20L2 colon, with RXF-631 renal, in the experiment on HOP-18 NSCLC and in the experiment with DLD-1 colon was more than 100 µM in each case. Besides, the TGI in the experiment with XF 498 CNS and with DMS 273 small cell lung was more than 100 µM each time.
Regarding `O=C(COC(=O)c1cccc2c(=O)c3ccccc3[nH]c12)Nc1ccc(S(=O)(=O)Nc2ncccn2)cc1`, the TGI with M19-MEL melanoma is more than 100 µM; in the experiment on SNB-78 CNS it was 74.4 µM; with KM20L2 colon, more than 100 µM; in the experiment with RXF-631 renal, more than 100 µM; with DLD-1 colon it was more than 100 µM; with XF 498 CNS it was more than 100 µM. This molecule also gave a TGI in the experiment on DMS 273 small cell lung of more than 100 µM.
As for `CCN(CC)/[N+]([O-])=N/OCC(C)O` (stereo not given), the TGI in the experiment on M19-MEL melanoma, in the experiment on SNB-78 CNS, in the experiment with RXF-631 renal, in the experiment with XF 498 CNS and in the experiment on DMS 273 small cell lung was more than 100 µM throughout.
On to `Cn1cc2ccccc2c1-c1nc(F)nc(Nc2ccc(N)cc2)n1`, for which the TGI amounted to 25.2 µM in the experiment with M19-MEL melanoma; 77.7 µM in the experiment on SNB-78 CNS; 47.4 µM with KM20L2 colon; 38.2 µM with RXF-631 renal; 34.9 µM in the experiment on DLD-1 colon; 30 µM in the experiment with XF 498 CNS. Also, the TGI in the experiment with DMS 273 small cell lung worked out at 25.6 µM.
Consider `COC(=O)c1ccc(/C=C/S(=O)(=O)c2ccccc2)cc1`, for which the TGI in the experiment with M19-MEL melanoma, in the experiment on SNB-78 CNS, in the experiment with KM20L2 colon, with RXF-631 renal, with DLD-1 colon and in the experiment on XF 498 CNS was more than 100 µM throughout. The same molecule showed a TGI in the experiment with DMS 273 small cell lung of more than 100 µM.
As to `COC(=O)C1=C(O)c2cc3c(cc2[C@H](c2cc(OC)c(OC)c(OC)c2)C1)OCO3`, the TGI in the experiment with M19-MEL melanoma is 10.1 µM; in the experiment with SNB-78 CNS, more than 100 µM; in the experiment with KM20L2 colon it was more than 100 µM; with RXF-631 renal it was more than 100 µM; in the experiment on HOP-18 NSCLC, more than 100 µM; in the experiment on DLD-1 colon, more than 100 µM. Also, the TGI with XF 498 CNS and with DMS 273 small cell lung was more than 100 µM throughout.
Turning to `N/C(=N\N=C\c1ccc(O)c(O)c1)NO`, the TGI with M19-MEL melanoma, in the experiment on SNB-78 CNS, in the experiment with KM20L2 colon, in the experiment on RXF-631 renal, in the experiment on HOP-18 NSCLC and in the experiment with DLD-1 colon was more than 100 µM each time. The TGI in the experiment on XF 498 CNS and with DMS 273 small cell lung was more than 100 µM throughout.
For `C/C(=N\NS(=O)(=O)c1c(C)cc(C)cc1C)c1ccc[n+]([O-])n1`, the TGI with M19-MEL melanoma was 29 µM; with SNB-78 CNS, 68.3 µM; with KM20L2 colon, 54.6 µM; with RXF-631 renal it was 93 µM; with HOP-18 NSCLC it was 47.3 µM; with DLD-1 colon it was 21 µM. This molecule came in with a TGI in the experiment on DMS 273 small cell lung of 34.8 µM.
